The values that follow come from patent US10836770B2, “Imidazopyridazine compounds useful as modulators of IL-12, IL-23 and/or INF alpha responses” (priority 2016, dated 2020).

For experiment [1], the target named is T1, recombinantly expressed His-tagged protein corresponding to amino acids 575-869 of human Tyk2 (Homo sapiens, UniProt P29597).
T1 construct: made in house
Put plainly: Probe displacement assay (scintillation proximity, radiolabeled probe). It counts as binding. On the procedure:
The probe displacement assay is conducted as follows: In a […], test compounds along with recombinantly expressed His-tagged protein corresponding to amino acids 575-869 of human Tyk2 (sequence shown below) at 2.5 nM, 40 nM ((R)—N-(1-(3-(8-methyl-5-(methylamino)-8H-imidazo[4,5-d]thiazolo[5,4-b]pyridin-2-yl)phenyl)ethyl)-2-([^3H]methylsulfonyl)benzamide) (preparation described below) and 80 μg/mL Copper His-Tag scintillation proximity assay beads (Perkin Elmer, Catalog #RPNQ0095) in 50 mM HEPES, pH 7.5, containing 100 μg/mL bovine serum albumin and 5% DMSO were incubated for 30 minutes at room temperature. […] The IC50 value is defined as the concentration of test compound required to inhibit radiolabeled probe binding by 50%.
Protein Sequence of recombinant Hig-tagged Tyk2 (575-869):
The preparation of radiolabeled probe, (R)—N-(1-(3-(8-methyl-5-(methylamino)-8H-imidazo[4,5-d]thiazolo[5,4-b]pyridin-2-yl)phenyl)ethyl)-2-([^3H]methylsulfonyl)benzamide, was performed as described below: […]
For orientation: SPA uses beads or plates that emit light when radiolabelled molecules are held near them.

Experiment [2] has as its system IL-23-stimulated Kit225 T cells with STAT-dependent luciferase reporter. Put plainly: Kit225 T cell assay, IL-23 stimulated STAT-dependent luciferase reporter. It counts as cell-based, human. The following applies: Homo sapiens, KIT225, read-out: IL-23 Kit225 Reporter, LE (IC50, uM). On the procedure:
(§1) Kit225 T cells with a stably-integrated STAT-dependent luciferase reporter were plated in RPMI (GIBCO) containing 10% heat-inactivated FBS (GIBCO) and 100 U/mL PenStrep (GIBCO). The cells were then stimulated with either 20 ng/mL human recombinant IL-23 or 200 U/mL human recombinant IFNα (PBL InterferonSource) for 5-6 hours. Luciferase expression was measured using the STEADY-GLO® Luciferase Assay System (PROMEGA®) according to the manufacturer's instructions.
In general terms: Reporter assays use an easily measured gene product as a stand-in for the process of interest.

For experiment [3], the system named is IFNα-stimulated Kit225 T cells with STAT-dependent luciferase reporter. Put plainly: Kit225 T cell assay, IFNα stimulated STAT-dependent luciferase reporter. The following applies: Homo sapiens, KIT225, read-out: IFNa Kit225 Reporter, LE (IC50, uM). The experiment is classed as cell-based, human. On the procedure: as §1

The structures appear in SMILES notation.

T1 sequence (P29597 with tags, fused parts or gaps): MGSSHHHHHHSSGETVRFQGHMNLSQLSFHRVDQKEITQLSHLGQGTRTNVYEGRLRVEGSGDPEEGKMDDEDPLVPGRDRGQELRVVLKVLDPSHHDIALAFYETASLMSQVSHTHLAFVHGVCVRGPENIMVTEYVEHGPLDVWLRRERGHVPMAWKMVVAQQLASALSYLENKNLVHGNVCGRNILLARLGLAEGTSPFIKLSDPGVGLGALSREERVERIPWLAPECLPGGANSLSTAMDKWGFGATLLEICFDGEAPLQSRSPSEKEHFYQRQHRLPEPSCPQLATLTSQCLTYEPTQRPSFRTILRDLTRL

For `CNC(=O)c1cc(Nc2cc(NC)c3ncc(C(=O)NC4CC4)n3n2)n(C)n1` [Example 39, N-cyclopropyl-6-((1-methyl-3-(methylcarbamoyl)-1H-pyrazol-5-yl)amino)-8-(methylamino)imidazo[1,2-b]pyridazine-3-carboxamide], the EC50 (commonly the concentration needed to bring the measured effect to its halfway point) in experiment [1] was determined as 1270 nM. In addition, the IC50 in experiment [2] and in experiment [3] was 12.5 µM throughout.
For the compound `CNc1cc(Nc2cc(C(=O)Nc3ccccc3)nn2C)nn2c(C(=O)NC3CC3)cnc12` [Example 40], in experiment [1], the EC50 is 80 nM. Also, the IC50 in experiment [2] and in experiment [3] was 12.5 µM in each case.
In the case of `CNC(=O)c1cc(Nc2cc(NC)c3ncc(C(=O)NC4CC4)n3n2)nn1C` [Example 41, N-cyclopropyl-6-((1-methyl-5-(methylcarbamoyl)-1H-pyrazol-3-yl)amino)-8-(methylamino)imidazo[1,2-b]pyridazine-3-carboxamide], the EC50 in experiment [1] came out at 30 nM. Further, the IC50 in experiment [2] and in experiment [3] was 12.5 µM in each case.
On to `CNc1cc(Nc2cc(C(=O)Nc3ccccc3)n(C)n2)nn2c(C(=O)NC3CC3)cnc12` [Example 42], for which the EC50 in experiment [1] was 360 nM. Besides, the IC50 in experiment [2] and in experiment [3] was 12.5 µM in each case.
In the case of `CNC(=O)c1sccc1Nc1cc(NC)c2ncc(C(=O)NC3CC3)n2n1` [Example 43, N-cyclopropyl-8-(methylamino)-6-((2-(methylcarbamoyl)thiophen-3-yl)amino)imidazo[1,2-b]pyridazine-3-carboxamide], the EC50 in experiment [1] is 490 nM. In addition, the values for the IC50 in experiment [2] and in experiment [3] were 16.1 µM and 12.5 µM, respectively.
The matching figures for `CNc1cc(Nc2ccsc2C(=O)NC(C)C)nn2c(C(=O)NC3CC3)cnc12` [Example 44]: 10 nM, 0.14 µM and 0.07 µM.
On the same counts, the results for `CNc1cc(Nc2ccsc2C(=O)Nc2ccc(F)cc2)nn2c(C(=O)NC3CC3)cnc12` [Example 45] are 20 nM, 0.22 µM and 0.13 µM.
The matching figures for `CNc1cc(Nc2ccsc2C(=O)Nc2cccnc2)nn2c(C(=O)NC3CC3)cnc12` [Example 46]: 8 nM, 0.1 µM and 0.12 µM.
Turning to `[2H]C([2H])([2H])NC(=O)c1sccc1Nc1cc(NC)c2ncc(C(=O)NC3CC3)n2n1` [Example 47], the EC50 in experiment [1] is 5.13 nM. In addition, the IC50 (usually the concentration needed to halve the response being measured) in experiment [2] was determined as 0.06 µM; in experiment [3], 0.05 µM.
For the compound `[2H]C([2H])([2H])NC(=O)c1sccc1Nc1cc(NC)c2ncc(C(=O)NCCOC)n2n1` [Example 48], the EC50 in experiment [1] was 20 nM. For the same compound, the IC50 in experiment [2] is 0.15 µM; in experiment [3], 0.08 µM.
Turning to `[2H]C([2H])([2H])NC(=O)c1sccc1Nc1cc(NC)c2ncc(C(=O)NCCO)n2n1` [Example 49], the EC50 in experiment [1] came to 40 nM. Moreover, the IC50 in experiment [2] was 0.27 µM; in experiment [3], 0.26 µM.
On the same counts, the results for `[2H]C([2H])([2H])NC(=O)c1sccc1Nc1cc(NC)c2ncc(C(=O)NC3CCC3)n2n1` [Example 50] are 30 nM, 0.45 µM and 1 µM.
On to `CNC(=O)c1occc1Nc1cc(NC)c2ncc(C(=O)NC3CC3)n2n1` [Example 51, N-cyclopropyl-8-(methylamino)-6-((2-(methylcarbamoyl)furan-3-yl)amino)imidazo[1,2-b]pyridazine-3-carboxamide], for which the EC50 in experiment [1] worked out at 3.79 nM. In addition, the results for the IC50 in experiment [2] and in experiment [3] were 0.05 µM and 0.04 µM, respectively.
In the case of `CCNC(=O)c1occc1Nc1cc(NC)c2ncc(C(=O)NC3CC3)n2n1` [Example 52], in experiment [1], the EC50 came to 6.73 nM. Further, the values for the IC50 in experiment [2] and in experiment [3] were 0.1 µM and 0.06 µM, respectively.
On the same counts, the results for `[2H]C([2H])([2H])NC(=O)c1occc1Nc1cc(NC)c2ncc(C(=O)NC3CC3)n2n1` [Example 53] are 2.82 nM, 0.06 µM and 0.07 µM.
The matching figures for `CNc1cc(Nc2ccoc2C(=O)NC(C)C)nn2c(C(=O)NC3CC3)cnc12` [Example 54]: 6.06 nM, 0.17 µM and 0.05 µM.
The matching figures for `CNc1cc(Nc2ccoc2C(=O)Nc2ccc(OC)nc2)nn2c(C(=O)NC3CC3)cnc12` [Example 55]: 2.87 nM, 0.06 µM and 0.03 µM.
Take `CNc1cc(Nc2ccoc2C(=O)Nc2ccc(F)cc2)nn2c(C(=O)NC3CC3)cnc12` [Example 56]: in experiment [1], the EC50 was determined as 2.08 nM. The values for the IC50 in experiment [2] and in experiment [3] were 0.03 µM and 0.02 µM, respectively.
For the compound `CNc1cc(Nc2ccoc2C(=O)Nc2cccnc2)nn2c(C(=O)NC3CC3)cnc12` [Example 58], the EC50 in experiment [1] worked out at 3.61 nM. Besides, the IC50 is 0.15 µM in experiment [2] and 0.11 µM in experiment [3].
On to `CNC(=O)c1nscc1Nc1cc(NC)c2ncc(C(=O)NC3CC3)n2n1` [Example 59, 4-((3-(cyclopropylcarbamoyl)-8-(methylamino)imidazo[1,2-b]pyridazin-6-yl)amino)-N-methylisothiazole-3-carboxamide], for which the EC50 in experiment [1] was 1.93 nM. Moreover, the IC50 amounted to 0.01 µM in experiment [2] and 0.03 µM in experiment [3].
Consider `CNc1cc(Nc2csnc2C(=O)Nc2ccccc2)nn2c(C(=O)NC3CC3)cnc12` [Example 60], for which, in experiment [1], the EC50 is 2.69 nM. For the same compound, the IC50 in experiment [2] was determined as 0.211 µM; in experiment [3], 0.0662 µM.
On the same counts, the results for `CCNC(=O)c1nscc1Nc1cc(NC)c2ncc(C(=O)NC3CC3)n2n1` [Example 62] are 9.3 nM, 0.54 µM and 0.18 µM.
The matching figures for `CNc1cc(Nc2csnc2C(=O)N[C@@H]2C[C@@H]2F)nn2c(C(=O)NC3CC3)cnc12` [Example 64]: 1.99 nM, 0.08 µM and 0.06 µM.
Turning to `CNc1cc(Nc2csnc2C(=O)Nc2ccc(F)cc2)nn2c(C(=O)NC3CC3)cnc12` [Example 66], the EC50 in experiment [1] came out at 10 nM. In addition, the IC50 in experiment [2] amounted to 0.4 µM; in experiment [3], 0.11 µM.
For the compound `[2H]C([2H])([2H])NC(=O)c1nscc1Nc1cc(NC)c2ncc(C(=O)NC3CCC3)n2n1` [Example 67], the EC50 in experiment [1] amounted to 40 nM. Further, the IC50 in experiment [2] is 0.47 µM; in experiment [3], 0.23 µM.
Consider `[2H]C([2H])([2H])NC(=O)c1nscc1Nc1cc(NC)c2ncc(C(=O)N[C@@H]3C[C@@H]3F)n2n1` [Example 68], for which, in experiment [1], the EC50 worked out at 2.78 nM. Moreover, the IC50 came out at 0.14 µM in experiment [2] and 0.05 µM in experiment [3].
On the same counts, the results for `[2H]C([2H])([2H])NC(=O)c1nscc1Nc1cc(NC)c2ncc(C(=O)NCCOC)n2n1` [Example 69] are 2.29 nM, 0.05 µM and 0.01 µM.
On the same counts, the results for `[2H]C([2H])([2H])NC(=O)c1nscc1Nc1cc(NC)c2ncc(C(=O)NCc3nccs3)n2n1` [Example 70] are 20 nM, 0.42 µM and 0.11 µM.
The matching figures for `CCNC(=O)c1nscc1Nc1cc(NC)c2ncc(C(=O)NC3CCC3)n2n1` [Example 71]: 8.09 nM, 0.2 µM and 0.21 µM.
`CCNC(=O)c1nscc1Nc1cc(NC)c2ncc(C(=O)NCCOC)n2n1` [Example 72]: the EC50 in experiment [1] came out at 5.78 nM. The IC50 was found to be 0.14 µM in experiment [2] and 0.07 µM in experiment [3].
